Test results published in ChEMBL document CHEMBL4196088, “Induction of cell killing and autophagy by amphiphilic pyrrolidine derivatives on human pancreatic cancer cells” (Eur J Med Chem, 2018).

Tests used:
HeLa = assay: Growth inhibition of human HeLa cells after 72 hrs; format: functional, cell-based
BXPC-3 = assay: Growth inhibition of human BxPC3 cells after 72 hrs by XTT assay; format: functional, cell-based; settings: BXPC-3, 72 h
PANC-1 [1] = assay: Growth inhibition of human PANC1 cells after 72 hrs by XTT assay; format: functional, cell-based; settings: PANC-1, 72 h
MIA PaCa-2 = assay: Growth inhibition of human MIAPaCa2 cells after 72 hrs by MTT assay; format: functional, cell-based; settings: MIA PaCa-2, 72 h
PK9 = assay: Growth inhibition of human PK9 cells after 72 hrs by MTT assay; format: functional, cell-based; settings: PK9, 72 h
PANC-1 [2] = assay: Induction of apoptosis in human PANC1 cells assessed as accumulation at sub-G0/G1 phase at 20 uM after 72 hrs by propidium iodide staining based flow cytometry (reference value: 1.6 to 3.2%); format: functional
PANC-1 [3] = assay: Induction of apoptosis in human PANC1 cells assessed as accumulation at sub-G0/G1 phase at 20 uM after 24 hrs by propidium iodide staining based flow cytometry (reference value: 0.6 to 0.7%); format: functional
PANC-1 [4] = assay: Induction of apoptosis in human PANC1 cells assessed as accumulation at sub-G0/G1 phase at 10 uM after 72 hrs by propidium iodide staining based flow cytometry (reference value: 1.6 to 3.2%); format: functional
PANC-1 [5] = assay: Induction of apoptosis in human PANC1 cells assessed as accumulation at sub-G0/G1 phase at 20 uM after 48 hrs by propidium iodide staining based flow cytometry (reference value: 0.2 to 2.9%); format: functional
PANC-1 [6] = assay: Induction of apoptosis in human PANC1 cells assessed as accumulation at sub-G0/G1 phase at 10 uM after 48 hrs by propidium iodide staining based flow cytometry (reference value: 0.2 to 2.9%); format: functional
PANC-1 [7] = assay: Induction of apoptosis in human PANC1 cells assessed as accumulation at sub-G0/G1 phase at 10 uM after 24 hrs by propidium iodide staining based flow cytometry (reference value: 0.6 to 0.7%); format: functional

| SMILES | IC50 (BXPC-3) | IC50 (PANC-1 [1]) | IC50 (MIA PaCa-2) | IC50 (PK9) | also measured |
| --- | --- | --- | --- | --- | --- |
| CC(C)(C)OC(=O)N1C[C@H](O)C[C@H]1COCCCCCCCC/C=C/c1ccc(Oc2ccccc2)cc1 |  |  |  |  | IC50 (HeLa): 41 µM |
| CC(C)(C)OC(=O)N1C[C@H](O)C[C@H]1COCCCCCCCCC/C=C/c1ccc(-c2ccccc2)cc1 |  |  |  |  | IC50 (HeLa): 36.5 µM |
| Cc1ccc([S+]([O-])N2CCC[C@H]2COCCCCCC/C=C/c2ccc(Oc3ccccc3)cc2)cc1 (some centres undefined) | 50 µM | 60 µM |  |  |  |
| CCCCCCCC/C=C\CCCCCCCCOC[C@@H]1CCCN1C(=O)OC(C)(C)C | > 100 µM | 80 µM | > 100 µM | > 100 µM |  |
| CC(C)(C)OC(=O)N1CCC[C@H]1COCCCCCCCC/C=C/c1ccc(-c2ccccc2)cc1 | 70 µM | 90 µM | 69.2 µM | > 100 µM |  |
| C=CCCCCCCOC[C@@H]1CCCN1C(=O)OC(C)(C)C | 53.3 µM | 56.7 µM | 47.1 µM | 57.1 µM |  |
| C=CCCCCCCOC[C@@H]1C[C@@H](O)CN1 |  |  |  |  | IC50 (HeLa): > 100 µM |
| C=CCCCCCCCCCOC[C@@H]1C[C@@H](O)CN1C(=O)OC(C)(C)C |  |  |  |  | IC50 (HeLa): 39 µM |
| O=CN1CCC[C@H]1COCCCCCCCCC/C=C/c1ccc(-c2ccccc2)cc1 | 66.7 µM | 56.7 µM |  |  |  |
| O[C@H]1CN[C@H](COCCCCCC/C=C/c2ccc(Oc3ccccc3)cc2)C1 |  |  |  |  | IC50 (HeLa): 5.1 µM |
| CC(C)(C)OC(=O)N1CCC[C@H]1COCCCCCCCCC/C=C/c1ccc(Oc2ccccc2)cc1 |  | > 100 µM | 59.6 µM | > 100 µM |  |
| C(=C\c1ccc(Oc2ccccc2)cc1)/CCCCCCCCCOC[C@@H]1CCCN1 | 56.7 µM | 60 µM | 19.3 µM | 20.7 µM |  |
| C=CCCCCCCCCCOC[C@@H]1C[C@@H](O)CN1 |  |  |  |  | IC50 (HeLa): 39 µM |
| C(=C\c1ccc(-c2ccccc2)cc1)/CCCCCCOC[C@@H]1CCCN1.Cl | 5.7 µM | 5.3 µM | 2.9 µM | 3.2 µM | Activity (PANC-1 [2]): 4.3%; Activity (PANC-1 [3]): 2.3%; Activity (PANC-1 [4]): 4.7%; Activity (PANC-1 [5]): 2.1%; Activity (PANC-1 [6]): 1.6%; Activity (PANC-1 [7]): 0.9% |
| CC(=O)N1CCC[C@H]1COCCCCCC/C=C/c1ccc(Oc2ccccc2)cc1 | 60 µM | 40 µM |  |  |  |
| CC(=O)N1CCC[C@H]1COCCCCCCCCC/C=C/c1ccc(Oc2ccccc2)cc1 | 73.3 µM | 65 µM |  |  |  |
| CC(C)(C)OC(=O)NCC(=O)N1CCC[C@H]1COCCCCCC/C=C/c1ccc(-c2ccccc2)cc1 | 66.7 µM | 66.7 µM |  |  |  |
| CC(C)(C)OC(=O)N1C[C@H](O)C[C@H]1COCCCCCC/C=C/c1ccc(Oc2ccccc2)cc1 |  |  |  |  | IC50 (HeLa): 41 µM |
| CC(C)(C)OC(=O)N1C[C@H](O)C[C@H]1COCCCCCC/C=C/c1ccc(-c2ccccc2)cc1 |  |  |  |  | IC50 (HeLa): 38.5 µM |

| SMILES | IC50 (BXPC-3) | IC50 (PANC-1 [1]) | IC50 (MIA PaCa-2) | IC50 (PK9) | also measured |
| --- | --- | --- | --- | --- | --- |
| Cc1ccc([S+]([O-])N2CCC[C@H]2COCCCCCC/C=C/c2ccc(-c3ccccc3)cc2)cc1 (some centres undefined) | ≥ 100 µM | ≥ 100 µM |  |  |  |
| O[C@H]1CN[C@H](COCCCCCCCC/C=C/c2ccc(-c3ccccc3)cc2)C1 |  |  |  |  | IC50 (HeLa): 3.9 µM |
| Cc1ccc([S+]([O-])N2CCC[C@H]2COCCCCCCCCC/C=C/c2ccc(Oc3ccccc3)cc2)cc1 (some centres undefined) |  | > 100 µM |  |  |  |
| O=CN1CCC[C@H]1COCCCCCC/C=C/c1ccc(-c2ccccc2)cc1 | 53.3 µM | 50 µM |  |  |  |
| CC(=O)N1CCC[C@H]1COCCCCCC/C=C/c1ccc(-c2ccccc2)cc1 | 50 µM | 65 µM |  |  |  |
| O=CN1CCC[C@H]1COCCCCCCCCC/C=C/c1ccc(Oc2ccccc2)cc1 | 65 µM | 63.3 µM |  |  |  |
| CCCCCCCC/C=C/CCCCCCCCOC[C@@H]1C[C@@H](O)CN1 |  |  |  |  | IC50 (HeLa): 4 µM |
| CCCCCCCC/C=C\CCCCCCCCOC[C@@H]1C[C@@H](O)CN1C(=O)OC(C)(C)C |  |  |  |  | IC50 (HeLa): 40 µM |
| C(=C\c1ccc(Oc2ccccc2)cc1)/CCCCCCOC[C@@H]1CCCN1 | 49.7 µM | 30 µM | 7.4 µM | 11.4 µM |  |
| C(=C\c1ccc(-c2ccccc2)cc1)/CCCCCCCCCOC[C@@H]1CCCN1.Cl | 7 µM | 7.3 µM | 8.3 µM | 5.5 µM | Activity (PANC-1 [2]): 11.6%; Activity (PANC-1 [3]): 7%; Activity (PANC-1 [4]): 8.4%; Activity (PANC-1 [5]): 2.2%; Activity (PANC-1 [6]): 1.9%; Activity (PANC-1 [7]): 1.6% |
| CC(C)(C)OC(=O)N1C[C@H](O)C[C@H]1COCCCCCCCC/C=C/c1ccc(-c2ccccc2)cc1 |  |  |  |  | IC50 (HeLa): 37.5 µM |
| CCCCCCCC/C=C/CCCCCCCCOC[C@@H]1C[C@@H](O)CN1C(=O)OC(C)(C)C |  |  |  |  | IC50 (HeLa): 29.5 µM |
| CC(C)(C)OC(=O)N1C[C@H](O)C[C@H]1COCCCCCCCCC/C=C/c1ccc(Oc2ccccc2)cc1 |  |  |  |  | IC50 (HeLa): 45.9 µM |
| CCCCCCCC/C=C\CCCCCCCCOC[C@@H]1CCCN1[S+]([O-])c1ccc(C)cc1 (some centres undefined) | > 100 µM | > 100 µM |  |  |  |
| C=CCCCCCCCCCOC[C@@H]1CCCN1C(=O)OC(C)(C)C | 50 µM | ≥ 100 µM | 50.3 µM | > 100 µM |  |
| CCCCCCCC/C=C\CCCCCCCCOC[C@@H]1C[C@@H](O)CN1 |  |  |  |  | IC50 (HeLa): 3.9 µM |
| CC(C)(C)OC(=O)NCC(=O)N1CCC[C@H]1COCCCCCCCCC/C=C\c1ccc(Oc2ccccc2)cc1 | > 100 µM | > 100 µM |  |  |  |
| C=CCCCCCCOC[C@@H]1C[C@@H](O)CN1C(=O)OC(C)(C)C |  |  |  |  | IC50 (HeLa): 23 µM |
| O=CN1CCC[C@H]1COCCCCCC/C=C/c1ccc(Oc2ccccc2)cc1 | 46.7 µM | 53.3 µM |  |  |  |

Further lines, with some results ahead:

| IC50 (BXPC-3) | IC50 (PANC-1 [1]) | IC50 (MIA PaCa-2) | SMILES | IC50 (PK9) | also measured |
| --- | --- | --- | --- | --- | --- |
| 5.3 µM | 5.3 µM | 4.2 µM | CCCCCCCC/C=C/CCCCCCCCOC[C@@H]1CCCN1.Cl | 9.2 µM | Activity (PANC-1 [2]): 2.5%; Activity (PANC-1 [3]): 1.2%; Activity (PANC-1 [4]): 8%; Activity (PANC-1 [5]): 5.3%; Activity (PANC-1 [6]): 2.6%; Activity (PANC-1 [7]): 1.6% |
| > 100 µM | > 100 µM | 23 µM | CC(C)(C)OC(=O)N1CCC[C@H]1COCCCCCC/C=C/c1ccc(-c2ccccc2)cc1 | > 100 µM |  |
| 6.3 µM | 50 µM | 17.1 µM | C=CCCCCCCCCCOC[C@@H]1CCCN1 | 18.9 µM |  |
| > 100 µM | 90 µM | > 100 µM | CC(C)(C)OC(=O)N1CCC[C@H]1COCCCCCCCC/C=C/c1ccc(Oc2ccccc2)cc1 | > 100 µM |  |
| > 100 µM | > 100 µM |  | Cc1ccc([S+]([O-])N2CCC[C@H]2COCCCCCCCCC/C=C/c2ccc(-c3ccccc3)cc2)cc1 (some centres undefined) |  |  |
| 5.3 µM | 5.3 µM | 3.7 µM | C(=C\c1ccc(-c2ccccc2)cc1)/CCCCCCCCOC[C@@H]1CCCN1.Cl | 3.9 µM | Activity (PANC-1 [2]): 10.6%; Activity (PANC-1 [3]): 0.9%; Activity (PANC-1 [4]): 12.2%; Activity (PANC-1 [5]): 3.2%; Activity (PANC-1 [6]): 2.3%; Activity (PANC-1 [7]): 1% |
| > 100 µM | > 100 µM | 72.9 µM | C=CCCCCCCOC[C@@H]1CCCN1 | 57.7 µM |  |
| 60 µM | 80 µM | 57.4 µM | CC(C)(C)OC(=O)N1CCC[C@H]1COCCCCCCCCC/C=C/c1ccc(-c2ccccc2)cc1 | > 100 µM |  |
| 50 µM | 56.7 µM |  | C=CCCCCCCCCCOC[C@@H]1CCCN1[S+]([O-])c1ccc(C)cc1 (some centres undefined) |  |  |
| 63.3 µM | 63.3 µM | 8.5 µM | CC(C)(C)OC(=O)N1CCC[C@H]1COCCCCCC/C=C/c1ccc(Oc2ccccc2)cc1 | 69.5 µM |  |
| 43.3 µM | 50 µM | 18.3 µM | C(=C\c1ccc(Oc2ccccc2)cc1)/CCCCCCCCOC[C@@H]1CCCN1 | 20.8 µM |  |
| > 100 µM | > 100 µM |  | CCCCCCCC/C=C\CCCCCCCCOC[C@@H]1CCCN1C(=O)[C@@H]1CCCN1C(=O)OC(C)(C)C |  |  |
| > 100 µM | > 100 µM |  | CC(C)(C)OC(=O)NCC(=O)N1CCC[C@H]1COCCCCCCCCC/C=C/c1ccc(-c2ccccc2)cc1 |  |  |
| > 100 µM | > 100 µM | > 100 µM | CCCCCCCC/C=C/CCCCCCCCOC[C@@H]1CCCN1C(=O)OC(C)(C)C | > 100 µM |  |
| 56.7 µM | 70 µM |  | CC(=O)N1CCC[C@H]1COCCCCCCCCC/C=C/c1ccc(-c2ccccc2)cc1 |  |  |
| 5.3 µM | 4.7 µM | 5.4 µM | CCCCCCCC/C=C\CCCCCCCCOC[C@@H]1CCCN1.Cl | 6.5 µM | Activity (PANC-1 [2]): 14.1%; Activity (PANC-1 [3]): 2.2%; Activity (PANC-1 [4]): 14.4%; Activity (PANC-1 [5]): 2.3%; Activity (PANC-1 [6]): 4.6%; Activity (PANC-1 [7]): 2.4% |
| 80 µM | 63.3 µM |  | CC(C)(C)OC(=O)NCC(=O)N1CCC[C@H]1COCCCCCC/C=C/c1ccc(Oc2ccccc2)cc1 |  |  |
| 50 µM | 53.3 µM |  | C=CCCCCCCOC[C@@H]1CCCN1[S+]([O-])c1ccc(C)cc1 (some centres undefined) |  |  |
